Assay results: patent publication US20210024542A1 (Torcept Therapeutics, Inc., priority 2018, published 2021)

Tests used:
U-138MG = assay: OncoPanel cell proliferation assay, U-138MG; format: cell-based, human; details: U-138MG; for Cell Count Activity Area: scale 0-10
Description: (§1) Cells were grown in RPMI 1640, 10% FBS, 2 mM L-alanyl-L-glutamine, 1 mM Na pyruvate, or a special medium. Cells were seeded into 384-well plates and incubated in a humidified atmosphere of 5% CO2 at 37° C. Compounds were added the day following cell seeding. At the same time, a time zero untreated cell plate was generated. After a 3-day incubation period, cells were fixed and stained to allow fluorescence imaging of nuclei. Compounds (1 mM stock solutions) were serially diluted in half-log steps from the highest test concentration ([…]), and assayed over 10 concentrations with a maximum assay concentration of 0.1% DMSO. Automated fluorescence microscopy was carried out using a Molecular Devices ImageXpress Micro XL high-content imager, and images were collected with a 4× objective. 16-bit TIFF images were acquired and analyzed with MetaXpress 5.1.0.41 software.
(§2) Cell proliferation was measured by the fluorescence intensity of an incorporated nuclear dye. The output is referred to as the relative cell count, where the measured nuclear intensity is transformed to percent of control (POC) using the following formula: […]
(§3) Cellular response parameters were calculated using nonlinear regression to a sigmoidal single-site dose response model:
(§4) Where y is a response measured at concentration x, A and B are the lower and upper limits of the response, C is the concentration at the response midpoint (EC50), and D is the Hill Slope (Ref. 1).
(§5) EC50 is the test compound concentration at the curve inflection point or half the effective response (parameter C of the fitted curve solution). GI50 is the concentration needed to reduce the observed growth by half (midway between the curve maximum and the time zero value). “Cell Count Activity Area” is an estimate of the integrated area above the curve (Barretina, et al. The Cancer Cell Line Encyclopedia enables predictive modelling of anticancer drug sensitivity. Nature 483: 603-607). […] In rare instances, values <0 or >10 may be observed. […] Curve-fitting, calculations, and report generation was performed using a custom data reduction engine and MathIQ based software (AIM).

AsPC-1 = assay: OncoPanel cell proliferation assay, AsPC-1; details: for Cell Count Activity Area: AsPC-1, scale 0-10
Description: (§6) Cells were seeded into 384-well plates and incubated in a humidified atmosphere of 5% CO2 at 37° C. Compounds were added the day following cell seeding. At the same time, a time zero untreated cell plate was generated. After a 3-day incubation period, cells were fixed and stained to allow fluorescence imaging of nuclei. Compounds (1 mM stock solutions) were serially diluted in half-log steps from the highest test concentration (1 micromol), and assayed over 10 concentrations with a maximum assay concentration of 0.1% DMSO. Automated fluorescence microscopy was carried out using a Molecular Devices ImageXpress Micro XL high-content imager, and images were collected with a 4× objective. 16-bit TIFF images were acquired and analyzed with MetaXpress 5.1.0.41 software.

Hs 852.T = assay: OncoPanel cell proliferation assay, Hs 852.T; format: cell-based, human; details: for Cell Count Activity Area: scale 0-10
Description: as §1, §2, §3, §4, §5

SNU-5 = assay: OncoPanel cell proliferation assay, SNU-5; format: cell-based, human
Description: as §1, with “Cells” for “Cells were grown in RPMI 1640, 10% FBS, 2 mM L-alanyl-L-glutamine, 1 mM Na pyruvate, or a special medium. Cells”
as §2, §3, §4
GI50 is the concentration needed to reduce the observed growth by half (midway between the curve maximum and the time zero value). […] In rare instances, values <0 or >10 may be observed. […] Curve-fitting, calculations, and report generation was performed using a custom data reduction engine and MathIQ based software (AIM).

SK-N-AS = assay: OncoPanel cell proliferation assay, SK-N-AS; format: cell-based, human; details: for Cell Count Activity Area: scale 0-10
Description: as §1, §2, §3, §4, §5

AGS = assay: OncoPanel cell proliferation assay, AGS; format: cell-based, human; details: scale 0-10
Description: as §1, §2, §3, §4, §5

SW579 = assay: OncoPanel cell proliferation assay, SW579; format: cell-based, human; details: for Cell Count Activity Area: SW579, scale 0-10
Description: as §1, §2, §3, §4, §5

A101D = assay: OncoPanel cell proliferation assay, A101D; format: cell-based, human; details: for Cell Count Activity Area: scale 0-10
Description: as §1, §2, §3, §4, §5

786-O = assay: OncoPanel cell proliferation assay, 786-O; format: cell-based, human; details: 786-O, scale 0-10
Description: as §1, §2, §3, §4, §5

CEM-C1 = assay: OncoPanel cell proliferation assay, CEM-C1; format: cell-based, human; details: for Cell Count Activity Area: CEM-C1, scale 0-10; for IC50: Homo sapiens, 72 h, CEM-C1, 3-day incubation, read-out: Cell Count IC50
Description: as §1, §2, §3, §4, §5

SK-UT-1 = assay: OncoPanel cell proliferation assay, SK-UT-1; details: for Cell Count Activity Area: SK-UT-1, scale 0-10
Description: as §6

G-402 = assay: OncoPanel cell proliferation assay, G-402; format: cell-based, human; details: G-402, scale 0-10
Description: as §1, §2, §3, §4, §5

[1] = Homo sapiens, 72 h, 3-day incubation, read-out: Cell Count EC50
[2] = Homo sapiens, 72 h, 3-day incubation, read-out: Cell Count IC50

| SMILES | Cell Count Activity Area (U-138MG) | Cell Count Activity Area (AsPC-1) | Cell Count Activity Area (Hs 852.T) | Cell Count Activity Area (SK-N-AS) | Cell Count Activity Area (AGS) | Cell Count Activity Area (SW579) | Cell Count Activity Area (A101D) | Cell Count Activity Area (786-O) | Cell Count Activity Area (CEM-C1) | IC50 (CEM-C1) | Cell Count Activity Area (SK-UT-1) | Cell Count Activity Area (G-402) | other results |
| --- | --- | --- | --- | --- | --- | --- | --- | --- | --- | --- | --- | --- | --- |
| CO[C@H]1C[C@@H]2CC[C@@H](C)[C@@](O)(O2)C(=O)C(=O)N2CCCC[C@H]2C(=O)O[C@H]([C@H](C)C[C@@H]2CC[C@@H](O)[C@H](OC)C2)CC(=O)[C@H](C)/C=C(\C)[C@@H](O)[C@@H](OC)C(=O)[C@H](C)C[C@H](C)/C=C/C=C/C=C/1C [Rapamycin, reference compound] | 3.14 | 1.48 | 1.43 | 3.58 | 5.67 | 4.77 | 2.92 | 4.17 | 3.61 | > 1 µM | 3.23 | 4.68 | IC50 (U-138MG; Homo sapiens, U138-MG, 72 h, 3-day incubation, read-out: Cell Count IC50): > 1 µM; EC50 (AsPC-1; Homo sapiens, ASPC1, 72 h, read-out: Cell Count EC50): > 1 µM; GI50 (AsPC-1; Homo sapiens, ASPC1, 72 h, read-out: Cell Count GI50): > 1 µM; IC50 (AsPC-1; Homo sapiens, ASPC1, 72 h, read-out: Cell Count IC50): > 1 µM; EC50 (Hs 852.T; [1]): > 1 µM; GI50 (Hs 852.T; Homo sapiens, 72 h, 3-day incubation, read-out: Cell Count GI50): > 1 µM; IC50 (Hs 852.T; [2]): > 1 µM; GI50 (SNU-5; Homo sapiens, 72 h, SNU-5, 3-day incubation, read-out: Cell Count GI50): 0.024 µM; IC50 (SNU-5; Homo sapiens, 72 h, SNU-5, 3-day incubation, read-out: Cell Count IC50): > 1 µM; IC50 (SK-N-AS; [2]): > 1 µM; IC50 (SW579; Homo sapiens, 72 h, SW579, 3-day incubation, read-out: Cell Count IC50): > 1 µM; IC50 (A101D; [2]): > 1 µM; EC50 (SK-UT-1; Homo sapiens, SK-UT-1, 72 h, read-out: Cell Count EC50): 0.0002 µM; GI50 (SK-UT-1; Homo sapiens, SK-UT-1, 72 h, read-out: Cell Count GI50): > 1 µM; IC50 (SK-UT-1; Homo sapiens, SK-UT-1, 72 h, read-out: Cell Count IC50): > 1 µM |
| CN[C@@H]1C[C@H]2O[C@@](C)([C@@H]1OC)n1c3ccccc3c3c4c(c5c6ccccc6n2c5c31)C(=O)NC4 [Staurosporine, reference compound] | 3.72 | 3.28 | 3.16 | 4.83 | 6.19 | 6.09 | 4.56 | 4.87 | 4.28 | 0.0092 µM | 3.46 | 5.93 | Cell Count Activity Area (SNU-5; SNU-5, scale 0-10): 2.58; EC50 (SK-N-AS; [1]): 0.0017 µM; EC50 (SW579; Homo sapiens, 72 h, SW579, 3-day incubation, read-out: Cell Count EC50): 0.00052 µM |
